Where two headings read alike, the source gives them in different places.
Experiments:
spermatozoa = settings: mice; cited from earlier work
[1] = Investigation of pH: vasopressin stability by HPLC after 60° C. for one week (Example 2); type: physicochemical; settings: 10 mM citrate buffer in isotonic saline
Description: To determine a possible pH for a vasopressin formulation with good shelf life, vasopressin formulations were prepared in 10 mM citrate buffer diluted in isotonic saline across a range of pH. Stability was assessed via HPLC as in EXAMPLE 1 after incubation of the formulations at 60° C. for one week. FIG. 9 illustrates the results of the experiment. […] At pH 3.5, the percent label claim (% LC) of vasopressin was highest, and the proportion of total impurities was lowest.

[2] = tested on: septic shock and post-cardiotomy vasodilatory shock; settings: seven studies in septic shock and eight studies in post-cardiotomy vasodilatory shock; cited from earlier work
bacterial = test: In vitro bacterial mutagenicity (Ames) test
[3] = cited from earlier work

## NC(=O)CC[C@@H]1NC(=O)[C@H](Cc2ccccc2)NC(=O)[C@H](Cc2ccc(O)cc2)NC(=O)[C@@H](N)CSSC[C@@H](C(=O)N2CCC[C@H]2C(=O)N[C@@H](CCCN=C(N)N)C(=O)NCC(N)=O)NC(=O)[C@H](CC(N)=O)NC1=O [Vasopressin, Cyclo (1-6) L-Cysteinyl-L-Tyrosyl-L-Phenylalanyl-L-Glutaminyl-L-Asparaginyl-L-Cysteinyl-L-Prolyl-L-Arginyl-L-Glycinamide]
spermatozoa
  effect on spermatozoa: can have an effect on function and fertilizing ability of spermatozoa
[1]
  pH at which the greatest level of stability was observed (highest % LC, lowest total impurities): 3.5
[2]
  systolic and mean blood pressure following administration: Increases in systolic and mean blood pressure
bacterial
  bacterial mutagenicity (Ames) test result: negative
[3]; at term
  increase of clearance of vasopressin in pregnancy: up to 5 fold
[3]; first trimester
  clearance of vasopressin in pregnancy: only slightly increased
[3]; third trimester
  increase of clearance of vasopressin in pregnancy: about 4 fold

From US9968649B2, “Vasopressin formulations for use in treatment of hypotension” (Par Pharmaceutical, Inc., priority 2015, dated 2018)
